Laboratory results taken from the NIST ThermoML archive (doi:10.1021/acs.jced.7b01049).

Assay: xn = mol fraction of the nth substance listed
Conditions: for surface tension liquid-gas / mass density: discharge crucible method; for mass density / viscosity: 100 kPa, Liquid; for viscosity: discharge crucible

[Pb] [lead] + [Sb]
Conditions | mass density [kg/m3] | surface tension liquid-gas [mN/m] | viscosity [mPa·s]
573 K, x2 = 0.1675 | 10206 | 437.1 | 2.565
623 K, x2 = 0.1675 | 10142 | 433.7 | 2.262
673 K, x2 = 0.1675 | 10087 | 429.9 | 1.999
673 K, x2 = 0.4 | 9263 | 418.3 | 1.873
723 K, x2 = 0.1675 | 10019 | 426.6 | 1.836
723 K, x2 = 0.4 | 9201 | 414.6 | 1.721
773 K, x2 = 0.1675 | 9963 | 422.8 | 1.694
773 K, x2 = 0.4 | 9143 | 411.5 | 1.573
773 K, x2 = 0.6 | 8244 | 400.5 | 1.561
823 K, x2 = 0.1675 | 9905 | 419.1 | 1.583
823 K, x2 = 0.4 | 9095 | 407.8 | 1.475
823 K, x2 = 0.6 | 8185 | 397.1 | 1.449
873 K, x2 = 0.1675 | 9862 | 415.6 | 1.495
873 K, x2 = 0.4 | 9042 | 403.9 | 1.358
873 K, x2 = 0.6 | 8138 | 393.9 | 1.333
873 K, x2 = 0.9 | 6977 | 376.2 | 1.539
923 K, x2 = 0.1675 | 9814 | 411.9 | 1.425
923 K, x2 = 0.4 | 8991 | 400.2 | 1.266
923 K, x2 = 0.6 | 8098 | 390.7 | 1.211
923 K, x2 = 0.9 | 6938 | 372.6 | 1.357
973 K, x2 = 0.9 | 6892 | 368.6 | 1.212
1023 K, x2 = 0.9 | 6856 | 364.4 | 1.118
